Tests used:
Type in all cases: biochemical, human
[1] = test system: PCT; test: Luciferase dual-antibody complementary activation assay for PCT detection, clone supernatants, retest with CTZ-h (Example 1); conditions: for Signal-to-noise ratio: RLU antigen+/RLU antigen-, MBP-PCT 3.3 ng/ml, CTZ-h; for PCT+: luminescence signal value with MBP-PCT 3.3 ng/ml, large subunit-rSCFV5 50 nM, supernatant; for PCT+ / PCT-: retest CTZ-h 25 µM, read after 60 s; for PCT-: luminescence signal value, background control PBSAD without PCT
[2] = test system: PCT; test: Complementation of purified rSCFV18-small subunit mutant fusion protein with large subunit-rSCFV5 fusion protein, PCT gradient (Example 2); conditions: for luminescence value: CTZ-h 25 µM, 20 s; for Signal-to-noise ratio at 1000 pg/ml: PCT 1000 pg/ml versus 0
Method: Protein expression and purification of small subunit mutants: The strains containing plasmids of different small subunits inTable 2, prepared in Example 1, were inoculated into 200ml of 2YTA medium and cultured at 37°C with shaking at 250 rpm for about 3h. When the OD600 reached 1.0, IPTG was added to a final concentration of 1mM, and the culture was further incubated at 30°C with shaking at 250rpm for 20h. The culture were centrifuged at 5,000g for 10min, and the precipitate was resuspended with 10ml of PBS, added with polymyxin B to 20,000u/ml. The suspension was inverted and mixed at room temperature for 1h, and centrifuged at 10,000g to collect the supernatant. The rSCFV18-small subunit mutant fusion protein was purified according to the standard procedure for his-tag protein purification using Ni-NTA resin.
In the same tube, the large subunit-rSCFV5 fusion protein was diluted with PBSA to 50 nM; rSCFV18-small subunit mutant fusion protein was diluted to 90 nM, mixed well, and then 22 µl was added per well; the MBP-PCT fusion protein was diluted in 3-fold gradient with PBSAD (in pg/ml), with 8 gradients in total, 10µl was added per well, and the background control was PBSAD and 10 µl was added per well; the plate was mixed with slight shaking and incubated at 37°C for 6 min, 50 µl of Obuffer 6.37-3 containing 25 µM of CTZ-h then was added, and after 20 s, the luminescence value was detected.

[3] = test system: PCT; test: Signal-to-noise ratio and linear range for PCT detection, purified fusion proteins (Example 3); design: key to luminescence value: luminescence normalized against the background value; conditions: for Signal-to-noise ratio at 1000 pg/ml: large subunit 100 nM, small subunit fusion 180 nM, CTZ-h 25 µM, 140 s
Method: Test Methods: • (1) MBP-PCT protein was diluted with PBSAD in 10-fold gradient starting from 100 ng/ml, with 8 gradients in total, and 10 µl was added per well; • (2) The large subunit-SCFV5 fusion protein was diluted with PBSA to 100 nM, and 10 µl was added per well; • (3) Different rSCFV18-small subunit mutant fusion proteins were diluted with PBSA to 180 nM, and 10 µl of each was added per well; • (4) The plate was mixed slightly and incubated at 37°C for 10 min; and • (5) 50 µl of Obuffer 6.37-3 containing 25 µM of CTZ-h was added, and after 140 s, the luminescence value was detected. The results are shown after normalization against the background value.

[4] = test system: PCT; test: as above; design: key: luminescence normalized against the background value; conditions: PCT 3.3 (pg/ml); normalized against the background value
[5] = PCT 0 pg/ml (background control PBSAD)
[6] = PCT 1000 pg/ml, large subunit 50 nM, small subunit fusion 90 nM
[7] = PCT 100 (pg/ml), normalized against the background value
[8] = PCT 1000 (pg/ml), normalized against the background value
[9] = PCT 10000 (pg/ml), normalized against the background value
[10] = PCT 100000 (pg/ml), normalized against the background value

Row | Sequence | Signal-to-noise ratio [1] | PCT+ [1] | PCT- [1] | luminescence value [2, 5] | luminescence value ([2]; PCT 1.37 pg/ml) | luminescence value ([2]; PCT 4.12 pg/ml) | luminescence value ([2]; PCT 12.35 pg/ml) | luminescence value ([2]; PCT 37.04 pg/ml) | luminescence value ([2]; PCT 111.1 pg/ml) | luminescence value ([2]; PCT 333.3 pg/ml) | Signal-to-noise ratio at 1000 pg/ml [2] | luminescence value [2, 6] | luminescence value ([3]; PCT 0, background, normalized) | luminescence value [3, 7] | luminescence value [3, 8] | luminescence value [3, 9] | luminescence value [3, 10] | Signal-to-noise ratio at 1000 pg/ml [3] | signal-to-noise ratios in luciferase dual-antibody complementary activation for PCT detection ([3]; statement in words on Table 3 and Figure 2) | luminescence value [4]
1 | VEGYRLFDRKS [RB073] | 48 | 46672 | 953 | 412 | 358 | 475 | 591 | 1013 | 2302 | 5886 | 38.9 | 16026 | 5000 | 12151 | 72352 | 566678 | 1966617 | 14.5 | higher signal-to-noise ratios | 5283
2 | VTGYRLFEEIL [P114, reference compound] | 12.2 | 5058 | 414 | 333 | 398 | 383 | 400 | 435 | 495 | 656 | 1.44 | 1256 | 5000 | 7073 | 18839 | 129750 | 642399 | 3.8 |  | 4789

— patent publication EP4700040A1, “PEPTIDE AND LUMINESCENT COMPLEX CONTAINING SAME” (Shenzhen Loggene Life Science & Technology Co., Ltd., priority 2023, dated 2024)
